Experimental data as given in patent US11285099B2, “Topical phenytoin for use in the treatment of peripheral neuropathic pain” (Topical Innovations B.V., priority 2016, dated 2022).
Entries after “also recorded” stand apart in the source; their conditions may differ. Where two headings read alike, the source gives them in different places.

Key:
[1] = partition coefficient between octanol and water; cited from earlier work
[2] = test system: peripheral neuropathic pain; assay: Patient cases: topical application on the skin, pain scored on the 11-point numerical rating scale (NRS); details: individual patients of Cases 1-15
[3] = after oral administration; cited from earlier work
[4] = cited from earlier work
neuropathic pain = details: in vivo; cited from earlier work

Compound	Log P [1]	analgesic effect of other or earlier treatment in the patient's history [2]	tolerability of earlier treatment in the patient's history (words) [2]	other results
O=[N+]([O-])O[C@H]1CO[C@H]2[C@@H]1OC[C@H]2O[N+](=O)[O-] [Isosorbide dinitrate]	1.3			
CNC1(c2ccccc2Cl)CCCCC1=O (centres unmarked) [Ketamine]	2.9			
CN(C)C(=O)C(CCN1CCC(O)(c2ccc(Cl)cc2)CC1)(c1ccccc1)c1ccccc1 [Loperamide]	5.5			
CN(C)CCC=C1c2ccccc2CCc2ccccc21 [amitriptyline]		no effect; also recorded: did not have any analgesic effect	induced too many side effects	
O=C(O)Cc1ccccc1Nc1c(Cl)cccc1Cl [diclofenac]				Cmax. of diclofenac in corresponding tissue [3]: 1160 ng/mL
CNCC[C@H](Oc1cccc2ccccc12)c1cccs1 [duloxetine]		did not have any effect	induced too many side effects	
NCC1(CC(=O)O)CCCCC1 [gabapentin]		did not have any effect		
O=C1NC(=O)C(c2ccccc2)(c2ccccc2)N1.[Na] [phenytoin sodium, sodium 5,5-diphenyl-2,4-imidazolidinedione]				solubility in water ([4]; 37° C., pH 10): about 2 mg/ml; maximum solubility in water ([4]; 37° C., pH 11.1): about 140 mg/mL; solubility in water ([4]; 37° C., pH range between 1 and 6): 35 to 40 µg/mL; pH at which dissolvable in water in significant amounts ([4]; according to US 2009/0022779): ≥ 12 pH
CC(C)C[C@H](CN)CC(=O)O [pregabalin]		did not have any effect	induced too many side effects	day at which significant pain reduction or relief versus placebo was shown (neuropathic pain): 2 days; median onset of action (>30% pain reduction) (neuropathic pain): 36 days; tolerability of earlier treatment in the patient's history (words) ([2]; listed as Pregabalin): too much side effects
COc1cccc(C2(O)CCCCC2CN(C)C)c1 (centres unmarked) [tramadol]		did not have any analgesic effect	induced too many side effects	
